Each block holds one compound with its values, some of them ahead of it.
What was measured:
[1] = target: T1, reduced α-chymotrypsinogen A (rChTg) (Bos taurus, UniProt P00766); experiment: Cys-DNB adduct absorbance at […] nm; format: binding; conditions: pH 5.0, 0.28 M urea, 25 °C; reduced protein; covalent; average of 10 -SH
[2] = target: T2, reduced Bacterioferritin Comigratory Protein 1 (rBcp1) (Saccharolobus solfataricus, UniProt Q97WP9); experiment: Cys-DNB adduct absorbance at […] nm; format: binding; conditions: pH 7.4, 0.12 M urea, 25 °C, covalent, 1 -SH/mol
T2 construct: gene bcp-1; recombinant in E. coli BL21(DE3)-RIL (pET30Bcp1), HisTrap purified, 18 kDa band
T2 sequence (Q97WP9 entry or part of it): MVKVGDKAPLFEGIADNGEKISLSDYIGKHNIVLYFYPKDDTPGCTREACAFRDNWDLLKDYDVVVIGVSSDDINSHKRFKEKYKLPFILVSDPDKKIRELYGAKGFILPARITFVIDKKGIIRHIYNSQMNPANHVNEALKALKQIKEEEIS

[3] = target: T3, reduced Protein Disulphide Oxidoreductase (rSsPDO) (Saccharolobus solfataricus, UniProt Q980T5); experiment: Cys-DNB adduct absorbance at […] nm; format: binding; conditions: pH 7.4, 0.4 M urea, 25 °C, covalent, 3 -SH/mol
T3 construct: gene SSO0192; recombinant in E. coli, HisTrap and Resource Q purified, about 27 kDa band
T3 sequence (Q980T5 1-233): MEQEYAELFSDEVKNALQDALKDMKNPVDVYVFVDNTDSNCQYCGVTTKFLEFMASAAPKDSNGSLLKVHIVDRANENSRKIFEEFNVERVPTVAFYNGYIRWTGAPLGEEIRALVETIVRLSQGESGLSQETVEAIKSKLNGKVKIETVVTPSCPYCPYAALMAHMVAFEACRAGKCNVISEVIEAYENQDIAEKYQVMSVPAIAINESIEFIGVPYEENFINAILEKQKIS

[4] = target: Cys50 (UniProt position 50, STREACAFRDN); experiment: chemical modification; conditions: 25 °C; 20 mM Britton-Robinson buffers; reduced, molten globule-like conformation in 0.2 M urea; 2.6 µM protein
[5] = target: T1, reduced α-chymotrypsinogen A (rChTg); experiment: thiol loss, DTNB titration; format: binding; conditions: pH 5.0, 0.2 M urea, 25 °C; reduced protein; covalent; 8 -SH/mol
Source text: thiol loss, DTNB titration on reduced α-chymotrypsinogen A (rChTg)

[6] = target: T2, reduced Bacterioferritin Comigratory Protein 1 (rBcp1); experiment: loss of reactive Cys, DTNB titration; format: binding; conditions: pH 7.4, 0.2 M urea, 25 °C, covalent, 1 -SH/mol
Source text: loss of reactive Cys, DTNB titration on reduced Bacterioferritin Comigratory Protein 1 (rBcp1)

[7] = target: T3, reduced Protein Disulphide Oxidoreductase (rSsPDO); experiment: loss of reactive Cys, DTNB titration; format: binding; conditions: pH 7.4, 0.4 M urea, 25 °C, covalent, 2 -SH/mol
Source text: loss of reactive Cys, DTNB titration on reduced Protein Disulphide Oxidoreductase (rSsPDO)

[8] = target: T3, reduced Protein Disulphide Oxidoreductase (rSsPDO); experiment: Cys-NBD adduct absorbance at […] nm; format: binding; conditions: pH 7.4, 0.4 M urea, 25 °C, covalent, 2 -SH/mol
[9] = target: T1, reduced α-chymotrypsinogen A (rChTg); experiment: Cys-NBD adduct absorbance at […] nm; format: binding; conditions: pH 5.0, 0.28 M urea, 25 °C; reduced protein; covalent; average of 10 -SH
[10] = target: T2, reduced Bacterioferritin Comigratory Protein 1 (rBcp1); experiment: Cys-NBD adduct absorbance at […] nm; format: binding; conditions: pH 7.4, 0.12 M urea, 25 °C, covalent, 1 -SH/mol
[11] = target: Cys45 (UniProt position 45, DDTPGCTREAS); experiment: chemical modification; conditions: 25 °C; 20 mM Britton-Robinson buffers; reduced, molten globule-like conformation in 0.2 M urea; 2.6 µM protein

Compound: O=[N+]([O-])c1ccc(Cl)c([N+](=O)[O-])c1 [CDNB, 1-chloro-2,4-dinitrobenzene]
Reduced ChTg / k (M^-1 s^-1) (-SH/mol ChTg) [1]: 0.19 ± 0.01 M⁻¹ s⁻¹ | Reduced Bcp1 / k (M^-1 s^-1) (-SH/mole Bcp1) [2]: 0.55 ± 0.03 M⁻¹ s⁻¹ | Reduced SsPDO / k (M^-1 s^-1) (-SH/mole SsPDO) [3]: 1.6 ± 0.1 M⁻¹ s⁻¹

Compound: Bacterioferritin comigratory protein 1 (Bcp1) C45S mutant, reduced (rC45S) (Sulfolobus solfataricus (Saccharolobus solfataricus); C45S)
pKa [4]: 7.6 ± 0.1

Reduced ChTg / k (M^-1 s^-1) (-SH/mol ChTg) [5]: 0.56 ± 0.02 M⁻¹ s⁻¹ | Reduced Bcp1 / k (M^-1 s^-1) (-SH/mole Bcp1) [6]: 115 ± 10 M⁻¹ s⁻¹ | Reduced SsPDO / k (M^-1 s^-1) (-SH/mole SsPDO) [7]: 10 ± 2 M⁻¹ s⁻¹
Compound: N[C@@H](CSSC[C@H](N)C(=O)O)C(=O)O [cystine]

Compound: O=[N+]([O-])c1ccc(Cl)c2nonc12 [NBD-Cl, 4-chloro-7-nitrobenzofurazan]
Reduced SsPDO / k (M^-1 s^-1) (-SH/mole SsPDO) [8]: 72 ± 3 M⁻¹ s⁻¹ | Reduced ChTg / k (M^-1 s^-1) (-SH/mol ChTg) [9]: 12.6 ± 0.5 M⁻¹ s⁻¹ | Reduced Bcp1 / k (M^-1 s^-1) (-SH/mole Bcp1) [10]: 27 ± 3 M⁻¹ s⁻¹

Compound: Bacterioferritin comigratory protein 1 (Bcp1) C50S mutant, reduced (rC50S) (Sulfolobus solfataricus (Saccharolobus solfataricus); C50S)
pKa [11]: 7.9 ± 0.1

Reduced Bcp1 / k (M^-1 s^-1) (-SH/mole Bcp1) [6]: 33 ± 3 M⁻¹ s⁻¹ | Reduced SsPDO / k (M^-1 s^-1) (-SH/mole SsPDO) [7]: 20 ± 2 M⁻¹ s⁻¹
Compound: NCCSSCCN [cystamine]

Reduced Bcp1 / k (M^-1 s^-1) (-SH/mole Bcp1) [6]: 15 ± 1 M⁻¹ s⁻¹ | Reduced SsPDO / k (M^-1 s^-1) (-SH/mole SsPDO) [7]: 6 ± 1 M⁻¹ s⁻¹
Compound: N[C@@H](CCSSCC[C@H](N)C(=O)O)C(=O)O [homocystine]
